Assay results from US20140179678A1, “METHODS OF TARGETED TREATMENT OF FRONTOTEMPORAL LOBAR DEGENERATION” (priority 2011, published 2014).
Like-named read-outs stand apart in the source and are kept apart here.

Key:
[1] = test system: progranulin mRNA in cerebral cortex; assay: Progranulin mRNA expression in mouse cerebral cortex (qPCR); format: in vivo, C57BL/6 mice; conditions: normal mice, 100 mg/kg oral, 8 h after acute dosing
Experimental: (§1) C57BL/6 mice (n=6/group; Charles River) were treated with either vehicle (1% carboxymethylcellulose-medium viscosity/0.5% Tween 80 (99.5:0.5 v/v)) or with an oral dose of 100 mg/kg of Compound 1 prepared in the same vehicle. Animals were sacrificed at specific time points and the brain extracted. Left and right hemisphere of the cerebral cortex were separated and used for RNA and protein extractions.
RNA was extracted with Qiazol reagent using the RNeasy lipid-rich tissue kit from Qiagen (Valencia, Calif.) following manufacturer instructions. RNA was then transcribed into cDNA using the high capacity cDNA reverse transcription kit from Applied Biosystems (Carlsbad, Calif.), according to kit instructions. Relative progranulin gene expression was measured by quantitative PCR using mouse-specific probes (Applied Biosystems, Carlsbad, Calif.) for the granulin gene, and for Rp113a as a reference gene. The ΔΔCt method was used for calculations of relative gene expression levels (Pfaffl, Nucleic Acids Res., 2001). This method compares expression of the different genes (reference and gene of interest) in animals treated with vehicle versus the compound of the invention (FIG. 5A).

[2] = test system: progranulin protein in immortalized lymphoblasts from a normal human subject; assay: Progranulin protein by western blot in immortalized lymphoblasts from a normal human subject; format: cell-based; conditions: 24 h
Experimental: Cellular protein from immortalized (Epstein-Barr-Virus) B-lymphocytes isolated from the peripheral blood of normal human volunteers was isolated as described in Example 4. Cells were treated with Compound 1 for 24 h. For Western Blotting analysis of progranulin protein, 50 μg of total cellular protein were separated on a 4-12% Bis-Tris Poly-Acrylamide gel using MOPS Running Buffer, transferred to a PVDF membrane and probed with a R & D Systems (Minneapolis, Minn.) mouse monoclonal anti-human progranulin antibody, followed by an IRDye secondary antibody (Rockland). Detection was performed using the Li-COR Odyssey imaging system. Progranulin signals (Integrated Intensity after background subtraction) were quantified using Li-COR Odyssey software.

[3] = Brain penetration (brain:plasma ratio of drug levels) after acute and repeated dosing; format: in vivo; conditions: rodents
[4] = test system: progranulin protein in cerebral cortex; assay: Progranulin protein levels in mouse cerebral cortex (ELISA); format: in vivo, C57BL/6 mice; conditions: normal mice, 100 mg/kg oral, 8 h after acute dosing
Experimental: as §1
Proteins were extracted in 50 mM Tris pH 7.4/150 mM NaCl/0.1% SDS with protease inhibitors using an extraction ratio of 200 mg of brain tissue per ml buffer. Sample was spun for 20 minutes at 16,200 g and supernatant collected. Progranulin levels were measured using a 1:4 dilution of the tissue extract (FIG. 5B) with a mouse ELISA kit from Adipogen (Incheon, South Korea) according to the manufacturer instructions. Progranulin levels were normalized to total protein concentration as measured by the BCA method (Pierce).

[5] = test system: progranulin protein in rat primary cortical neurons; assay: Progranulin protein expression in rat primary cortical neurons (ELISA); format: cell-based; conditions: 3 μM, after 8 h
Experimental: (§2) Primary cortical (Cx) and hippocampal (Hp) neurons are derived from E17 Sprague-Dawley rats and cultured in 24-well plates (325,000 cells/well for Cx and 250,000 cells/well for Hp). Half of the medium is replaced with fresh medium every four days. On day 10 of culture, neurons are incubated in the presence of different concentrations (0.1-3 μM) of a compound of the invention, e.g., Compound 1, for 2-24 h. At specific time points, conditioned medium is removed and frozen until needed for ELISA assay. Cells are washed with PBS and RNA is extracted with Qiazol reagent using the RNeasy kit from Qiagen (Valencia, Calif.) following manufacturer instructions. RNA is then transcribed into cDNA using the high capacity cDNA reverse transcription kit from Applied Biosystems (Carlsbad, Calif.) according to kit instructions.
(§3) For analysis of progranulin protein expression, cell pellets were re-suspended in 150 μl of chilled RIPA Lysis Buffer supplemented with a protease-inhibitor cocktail and incubated for 15-20 minutes at 4° C. to allow for cell lysis. Total protein concentrations of each sample were determined by performing a BCA protein assay (Pierce). Quantitative determination of Progranulin protein levels was performed by ELISA (AdipoGen, Incheon, South Korea), using a 1:20 dilution of the cell lysate following the manufacturer protocol. […]

[6] = Maximum Tolerated Dose in humans, oral dosing; format: in vivo; conditions: healthy volunteers
[7] = test system: progranulin protein in primary fibroblasts from progranulin mutation carriers; assay: Progranulin protein expression in primary fibroblasts from progranulin mutation carriers (ELISA); format: cell-based, human; conditions: 0.3 μM, after 8 h
Experimental: For analysis of progranulin protein expression, cell pellets were re-suspended in 150 μl of chilled RIPA Lysis Buffer supplemented with a protease-inhibitor cocktail and incubated for 15-20 minutes at 4° C. to allow for cell lysis. Total protein concentrations of each sample were determined by performing a BCA protein assay (Pierce). Quantitative determination of Progranulin protein levels was performed by ELISA (AdipoGen, Incheon, South Korea), using a 1:20 dilution of the cell lysate following the manufacturer protocol. Progranulin levels were expressed relative to protein amount, and compound treatment groups were expressed relative to the vehicle-treated group.
(§4) Primary fibroblasts from patients harboring different mutations in the progranulin gene were isolated and maintained in complete growth medium (cGM), comprised of D-MEM supplemented with 10% heat-inactivated FBS and 1% Penicillin/Streptomycin. The fibroblasts were seeded into 6-well tissue-culture plates at a density of 150,000-190,000 cells per well in cGM. Following overnight incubation, the cells were treated with 0.3 or 3 μM of Compound 1. Analysis of progranulin mRNA expression was performed as described in Example 4. Analysis of progranulin protein was performed as described in Example 4.

[8] = test system: progranulin mRNA in primary fibroblasts from progranulin mutation carriers; assay: Progranulin mRNA expression in primary fibroblasts from progranulin mutation carriers (qPCR); format: cell-based, human; conditions: 3 μM, after 8 h
Experimental: (§5) For analysis of progranulin mRNA expression, samples were analyzed as described in Example 1, with the exception that probes specific for the human granulin gene (Applied Biosystems, Carlsbad, Calif.) were used.
as §4

[9] = test system: progranulin protein in CSF and plasma; assay: Progranulin levels in rat CSF and plasma (ELISA); format: in vivo, Sprague Dawley rats; conditions: normal rats, 100 mg/kg intra-peritoneally
Experimental: Sprague Dawley rats (n=12/group; Charles River) were dosed intra-peritoneally with either vehicle (Solutol HS 15/Ethanol (3:2 v/v)) or with a dose of 100 mg/kg of Compound 1 prepared in the same vehicle. EDTA-Plasma and CSF were collected after 4 and 8 hours of treatment, and progranulin levels were assessed by ELISA (Adipogen, Incheon, South Korea) using a 1:2 dilution for CSF (FIG. 6A) and a 1:25 dilution for plasma (FIG. 6B).

[10] = test system: progranulin mRNA expression in primary cortical neurons; assay: Progranulin mRNA expression by quantitative PCR in primary cortical neurons; format: cell-based, rat; conditions: for increase in progranulin mRNA expression: after 8 h of treatment, primary cortical neurons
Experimental: as §2
Relative progranulin gene expression is measured by quantitative PCR using rat-specific probes (Applied Biosystems, Carlsbad, Calif.) for the granulin gene and for Rp113a as a reference gene. The ΔΔCt method is used for calculations of relative gene expression levels (Pfaffl, Nucleic Acids Res., 2001). This method compares expression of the different genes (reference and gene of interest) in cells treated with vehicle versus the compound of the invention. Moreover, this measurement and analysis of mRNA levels is expected to be predictive of the expression of progranulin protein levels.
Neuronal granulin gene expression was measured at different time points as described in Example 1 (1, 4, 6, 8, 10, 18 and 24 h) following treatment with (Z)-4-(dibenzo[b,f][1,4]oxazepin-11-yl)-N-hydroxybenzamide

[11] = test system: progranulin protein in lymphoblasts from progranulin mutation carriers; assay: Progranulin protein expression in FTLD patient lymphoblast cell lines (ELISA); format: cell-based, human; conditions: 3 μM, after 24 h
Experimental: (§6) Immortalized (Epstein-Barr-Virus) B-lymphocytes isolated from the peripheral blood of patients subject harboring different mutations in the granulin gene were used to measure effects of compounds on progranulin mRNA and protein expression. The cell lines were maintained in complete growth medium (cGM), comprised of RPMI 1640 medium supplemented with 15% heat-inactivated FBS, 4 mM L-Glutamine and 1% Penicillin/Streptomycin. Cells were seeded into 24-well tissue-culture plates at a density of 400,000-500,000 cells per well in cGM. Following an overnight incubation, the cells were treated with 0.3 or 3 μM of Compound 1. Following an 8- or 24-hour exposure to Compound 1, cells were collected, spun, and the resulting cell pellets underwent a single rinse in chilled PBS.
as §3

[12] = test system: progranulin mRNA in lymphoblasts from progranulin mutation carriers; assay: Progranulin mRNA expression in FTLD patient lymphoblast cell lines (qPCR); format: cell-based, human; conditions: 3 μM, after 24 h
Experimental: as §6, §5

[13] = cancer patients, oral; cited from earlier work
[14] = test system: acetylation of histones in the brain; assay: Acetylation of histones in the brain of mice, required free plasma exposure; format: in vivo

In the case of O=C(NO)c1ccc(C2=Nc3ccccc3Oc3ccccc32)cc1 [Compound 1, (Z)-4-(dibenzo[b,f][1,4]oxazepin-11-yl)-N-hydroxybenzamide], the “increase in progranulin mRNA in brain (cerebral cortex)” value [1] is reported as 1.45 fold, the “increase in progranulin protein (western blot)” value ([2]; 0.3 μM) is reported as 1.3 fold and the “increase in progranulin protein (western blot)” value ([2]; 3 μM) is reported as 1.6 fold. The Kp ([3]; acute and repeated dosing, read-out: brain:plasma (b:p) ratio for drug levels) was ~5, the “increase in progranulin protein levels in brain (cerebral cortex)” value [4] was “about 1.16 fold” and the “increase in progranulin protein expression” value [5] was 1.77 fold. For the same compound, the “Maximum Tolerated Dose (MTD), not observed at highest dose used” value [6] was > 400 mg, the “increase in progranulin protein expression” value [7] was 1.1 fold and the “increase in progranulin mRNA” value [8] was 1.3 fold. The “increase in CSF progranulin protein” value ([9]; 4 h after acute dosing) was “about 1.9 fold”, the “increase in plasma progranulin protein levels” value ([9]; concomitantly (4 h after acute dosing)) was “about 1.4 fold” and the “increase in progranulin mRNA expression” value ([10]; 0.3 μM) was ~2 fold. The “increase in progranulin mRNA expression” value ([10]; 3 μM) was ~5 fold, the “increase in progranulin gene expression” value ([10]; lowest dose (0.1 μM), as soon as 4 h after treatment, sustained for 24 h) was ~40% and the “increase in progranulin protein expression” value [11] was 1.5 fold. For the same compound, the “increase in progranulin mRNA” value [12] was 2.4 fold.
In the case of O=C(CCCCCCC(=O)Nc1ccccc1)NO [SAHA], the Kp ([3]; acute dosing experiments, read-out: brain:plasma (b:p) ratio) is given as ~0.1, the “Maximum Tolerated Dose (MTD)” value [13] is given as 400 mg and the “excess of plasma protein unbound ('free') drug required to produce acetylation of histones in the brain, compared to Compound 1” value [14] is given as ~30 fold.
